Laboratory results as given in patent publication US11390631B1, “Benzodiazepine derivatives as RSV inhibitors” (priority 2015, dated 2022).
Like-named read-outs stand apart in the source and are kept apart here.

Experiments:
[1] = test system: Human RSV-A (“Long” strain); assay: RSV-A assay: inhibition of cytopathic effect in Hep-2 cells, ATPlite readout; format: cell-based, Human respiratory syncytial virus (HRSV); details: human respiratory syncytial virus, read-out: Human RSV-A (“Long” strain) EC50
Outline: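 Hep-2 cells (8,000/well) were infected with RSV-A Long at MOI 0.1 alongside duplicate 2-fold compound dilutions. After 5 days, cell viability was read by ATPlite luminescence to give EC50. CC50 came from a parallel plate without virus.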

[2] = test system: RSV-B, genotype B, strain 9320; assay: RSV-B assay: A549 cells infected with RSV-B, qPCR or ATPlite readout; format: cell-based, Human respiratory syncytial virus (HRSV); details: human respiratory syncytial virus
Description: Hep-2 cells, (originally derived from tumors grown in irradiated-cortisonised weanling rats that had been injected with epidermoid carcinoma tissue from a person's larynx, but later found to be indistinguishable from HeLa cells by PCR DNA analysis), were used for the culturing of genotype B, strain 9320. Flasks were inoculated with RSV-B and viral stocks were collected once cytopathic effect (CPE) was greater than […]. Viral stocks in 25% o sucrose media were snap frozen using liquid nitrogen to increase viral stability. Viral stock titers were quantified by tissue culture infectious dose 50% o (TCID50) using 8,000 cells per well and 5-fold viral dilutions across a 96-well plate, cultured for 4 days. Viral stock titers were also quantified by a plaque forming unit assay, as described elsewhere.
The assay is run as follows: A549 cells (originally derived through explant culture from a person's carcinomatous lung tissue) are seeded into the inner 60 wells of a 96-well plate at 3,000 cells per well in a volume of 50 μL using A549 growth media (F-12K Media, 1% Penn/Strep, 1% nonessential amino acids, 10% heat-inactivated FBS). 2-fold serial dilutions of control and test compounds are added to the wells in duplicate in a total volume of 25 μL. Viral stock is then added to the wells at a multiplicity of infection (MOI) of 0.5 in a volume of 25 μL, bringing the total volume of each well to 100 μL. The MOI is calculated using the PFU/mL, or TCID50 if unavailable. Each 96-well plate has a control column of 6 wells with cells and virus but no compound (negative control, max CPE), a column with cells but no compound or virus (positive control, minimum CPE), and a column with no cells or virus or compound (background plate/reagent control). The control wells with cells but no virus are given an additional 25 uL of growth media containing an equal quantity of sucrose as those wells receiving the viral stock in order to keep consistent in media and volume conditions. The outer wells of the plate are filled with 125 μL of moat media (DMEM, 1% Penn/Strep) to act as a thermal and evaporative moat around the test wells. 6 days post infection, the plates are read using qPCR or ATP lite (50 uL added per well), which quantifies the amount of ATP (a measure of cell health) present in each well. Assay plates treated with APTlite are read using the Envision luminometer. […] EC50 ranges are as follows: A<0.4 μM; B 0.4-0.8 μM; C>0.8 μM.

[3] = A549, read-out: Human RSV-B EC50
[4] = 120 h, Hep-2 cells, MOI 0.1, 5-day incubation, ATPlite
[5] = A549 cells infected with RSV-B strain 9320, MOI 0.5, read-out: Human RSV-B EC50

EC50 [1, 4] [nM] | EC50 [2, 5] [nM] | SMILES | EC50 ([1]; HEp-2, 120 h) [nM] | EC50 [2, 3] [nM]
 |  | O=C1Nc2ccccc2C(c2ccccc2)=N[C@@H]1Nc1nnc(-c2ccc(C(F)(F)F)nc2N2CC3CCC(C2)O3)o1 [Example 276] | 400 to 800 | > 800
 |  | O=C1Nc2ccccc2C(c2ccccc2)=N[C@@H]1Nc1nnc(-c2cccnc2N2CCOCC2)o1 [Example 242] | < 400 | < 400
 |  | O=C1Nc2ccccc2C(c2ccccc2)=NC1Nc1nnc(-c2ccccc2N2CCOCC2)o1 (stereo not shown) [Example 125] |  | 400 to 800
 |  | Cc1ccc(-c2nnc(N[C@H]3N=C(c4ccccc4)c4ccccc4NC3=O)o2)c(N2CCOCC2)n1 [Example 252] | < 400 | < 400
< 400 | < 400 | O=C1Nc2ccccc2C(c2ccccc2)=N[C@@H]1Nc1nnc(-c2ncc(C(F)(F)F)cc2N2CCOCC2)o1 [Example 253] |  | 
 |  | N#Cc1ccc(-c2ccc(NC3N=C(c4ccccc4)c4ccccc4NC3=O)nn2)cc1 (stereo not shown) [Example 377] | < 400 | < 400
 |  | O=C1Nc2ccccc2C(c2ccccc2)=NC1Nc1nnc(-c2cccnc2N2CCOCC2)o1 (stereo not shown) [Example 120] | < 400 | 400 to 800
 |  | O=C1Nc2ccccc2C(c2ccccc2)=N[C@@H]1Nc1nnc(-c2nc(-c3ccccn3)sc2N2CCOCC2)o1 [Example 341] | < 400 | < 400
 |  | COCCOc1cc(C#N)ccc1-c1nnc(N[C@H]2N=C(c3ccccc3)c3ccccc3NC2=O)o1 [Example 300] | < 400 | < 400
 |  | CC(C)n1cc(-c2nnc(N[C@H]3N=C(c4ccccc4)c4ccccc4NC3=O)o2)c(N2CCOCC2)n1 [Example 403] | < 400 | < 400
 |  | O=C1Nc2ccccc2C(c2ccccc2)=N[C@@H]1Nc1nnc(-c2nc(C3CCC3)sc2N2CCOCC2)o1 [Example 387] | < 400 | < 400
 |  | O=C1Nc2ccccc2C(c2ccccc2)=NC1Nc1nnc(-c2ccc(C(F)(F)F)cc2N2CCOCC2)o1 (stereo not shown) [Example 123] | < 400 | 400 to 800
 |  | Cc1ccc(-c2nnc(NC3N=C(c4ccccc4)c4ccccc4NC3=O)o2)c(N2CCOCC2)n1 (stereo not shown) [Example 144] | < 400 | < 400
 |  | O=C1Nc2ccccc2C(c2ccccc2)=N[C@@H]1Nc1nnc(-c2nc(C(F)(F)F)sc2N2CCOCC2)o1 [Example 339] | < 400 | < 400
 |  | O=C1Nc2ccccc2C(c2ccccc2)=N[C@@H]1Nc1nnc(-c2ncc(F)cc2N2CCOCC2)o1 [Example 136, (S)-3-((5-(5-fluoro-3-morpholinopyridin-2-yl)-1,3,4-oxadiazol-2-yl)amino)-5-phenyl-1,3-dihydro-2H-benzo[e][1,4]diazepin-2-one] | < 400 | < 400
 |  | COC1CCN(c2cc(C(F)(F)F)cnc2-c2nnc(N[C@H]3N=C(c4ccccc4)c4ccccc4NC3=O)o2)CC1 [Example 268] | > 800 | 400 to 800
 |  | O=C1Nc2ccccc2C(c2ccccc2)=N[C@@H]1Nc1nnc(-c2nc3ccccc3cc2N2CCOCC2)o1 [Example 322] | < 400 | < 400
 |  | O=C1Nc2ccccc2C(c2ccccc2)=N[C@@H]1Nc1nnc(-c2nc(C3CC3)sc2N2CCOCC2)o1 [Example 338] | < 400 | < 400
 |  | O=C1Nc2ccccc2C(c2ccccc2)=N[C@@H]1Nc1nnc(-c2ncc(C(F)(F)F)cc2N2CC3CCC(C2)O3)o1 [Example 251] | < 400 | < 400
 |  | O=C1Nc2ccccc2C(c2ccccc2)=N[C@@H]1Nc1nnc(-c2oc3ccccc3c2N2CCOCC2)o1 [Example 179] | < 400 | < 400
 |  | O=C1Nc2ccccc2C(c2ccccc2)=N[C@@H]1Nc1nnc(-c2nc(-c3ccncc3)sc2N2CCOCC2)o1 [Example 429] | < 400 | < 400
 |  | O=C1Nc2ccccc2C(c2ccccc2)=N[C@@H]1Nc1nnc(-c2ncc(C(F)(F)F)cc2N2CCC(F)CC2)o1 [Example 269] | > 800 | 400 to 800
 |  | CN1CCN(c2ccccc2-c2nnc(NC3N=C(c4ccccc4)c4ccccc4NC3=O)o2)CC1 (stereo not shown) [Example 224] | > 800 | < 400
 |  | C[C@H]1CN(c2cc(C(F)(F)F)cnc2-c2nnc(N[C@H]3N=C(c4ccccc4)c4ccccc4NC3=O)o2)CCO1 [Example 278] | < 400 | < 400

EC50 [1, 4] [nM] | EC50 [2, 5] [nM] | SMILES | EC50 ([1]; HEp-2, 120 h) [nM] | EC50 [2, 3] [nM]
 |  | CN(C)c1ccc(-c2nnc(NC3N=C(c4ccccc4)c4ccccc4NC3=O)o2)nc1 (stereo not shown) [Example 108] | > 800 | > 800
 |  | O=C1Nc2ccccc2C(c2ccccc2)=NC1Nc1ccc(-c2ccccc2)nn1 (stereo not shown) [Example 95] | 400 to 800 | > 800
 |  | O=C1Nc2ccccc2C(c2ccccc2)=N[C@@H]1Nc1nnc(-c2csc(N3CCOCC3)n2)o1 [Example 351] | 400 to 800 | 400 to 800
 |  | C[C@H]1CN(c2ncccc2-c2nnc(NC3N=C(c4ccccc4)c4ccccc4NC3=O)o2)CCO1 (stereo partly shown) [Example 263] | 400 to 800 | 400 to 800
 |  | O=C1Nc2c(F)cccc2C(c2ccccc2)=N[C@@H]1Nc1nnc(-c2ccccc2N2CCOCC2)o1 [Example 355a] | < 400 | < 400
 |  | O=C1Nc2ccccc2C(c2ccccc2)=N[C@@H]1Nc1nnc(-c2nc(-c3ccccc3)sc2N2CCOCC2)o1 [Example 340] | < 400 | < 400
 |  | O=C1Nc2ccccc2C(c2ccccc2)=N[C@@H]1Nc1nnc(-c2ncc(C3CC3)cc2N2CCOCC2)o1 [Example 169] | < 400 | < 400
 |  | N#Cc1ccc(-c2nnc(NC3N=C(c4ccccc4)c4ccccc4NC3=O)o2)c(N2CCOCC2)c1 (stereo not shown) [Example 131] | < 400 | < 400
 |  | CC(F)(F)c1nc(-c2nnc(N[C@H]3N=C(c4ccccc4)c4ccccc4NC3=O)o2)c(N2CCOCC2)s1 [Example 407] | < 400 | < 400
< 400 | < 400 | O=C1Nc2ccccc2C(c2ccccc2)=NC1Nc1nnc(-c2ncc(C(F)(F)F)cc2N2CCOCC2)o1 (stereo not shown) [Example 139] |  | 
 |  | O=C1Nc2ccccc2C(c2ccccc2)=N[C@@H]1Nc1nnc(-c2ncsc2N2CCOCC2)o1 [Example 336] | < 400 | < 400
 |  | C[C@@H]1COCCN1c1ncccc1-c1nnc(NC2N=C(c3ccccc3)c3ccccc3NC2=O)o1 (stereo partly shown) [Example 245] | < 400 | 400 to 800
 |  | C[C@@H]1CN(c2cc(C(F)(F)F)cnc2-c2nnc(N[C@H]3N=C(c4ccccc4)c4ccccc4NC3=O)o2)CCO1 [Example 277] | < 400 | < 400
 |  | N#Cc1cc(-c2nnc(N[C@H]3N=C(c4ccccc4)c4ccccc4NC3=O)o2)c(N2CCOCC2)nc1C1CC1 [Example 175] | < 400 | 400 to 800
 |  | O=C1Nc2ccccc2C(c2ccccc2)=N[C@@H]1Nc1nnc(-c2ncc(C(F)(F)F)cc2N2C3CCC2COC3)o1 [Example 250] | < 400 | < 400
 |  | O=C1Nc2ccccc2C(c2ccccc2)=N[C@@H]1Nc1nnc(-c2nc(-c3cccnc3)sc2N2CCOCC2)o1 [Example 388] | < 400 | < 400
 |  | N#CCCNc1cc(C(F)(F)F)cnc1-c1nnc(N[C@H]2N=C(c3ccccc3)c3ccccc3NC2=O)o1 [Example 303] | < 400 | < 400
 |  | O=C1Nc2ccccc2C(c2ccccc2)=NC1Nc1nnc(-c2ccc(N3CCOCC3)cc2)o1 (stereo not shown) [Example 124] |  | < 400
 |  | O=C1Nc2ccccc2C(c2ccccc2)=NC1Nc1nnc(-c2ccc(-n3cccn3)cc2N2CCOCC2)o1 (stereo not shown) [Example 129] | < 400 | < 400
 |  | Cc1nc(-c2nnc(N[C@H]3N=C(c4ccccc4)c4ccccc4NC3=O)o2)c(N2CCOCC2)s1 [Example 272] | < 400 | < 400
 |  | O=C1Nc2ccccc2C(c2ccccc2)=NC1Nc1nnc(-c2ccc(F)cc2N2CCOCC2)o1 (stereo not shown) [Example 127] | < 400 | < 400
 |  | CCc1nc(-c2nnc(N[C@H]3N=C(c4ccccc4)c4ccccc4NC3=O)o2)c(N2CCOCC2)s1 [Example 385] | < 400 | < 400
 |  | N#Cc1cnc(-c2nnc(N[C@H]3N=C(c4ccccc4)c4ccccc4NC3=O)o2)c(N2CCOCC2)c1 [Example 160] |  | < 400
